Measurements taken from paper PMC6211316, “Synthesis and biological evaluation of 3-arylcoumarin derivatives as potential anti-diabetic agents” (Journal of Enzyme Inhibition and Medicinal Chemistry, 2018).

Key:
[1] = hydroxyl radical scavenging; details: mean ± SD (n = 3), read-out: OH IC50 Value
How it was run: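 Fenton system of H2O2 (0.03%), FeSO4 (2 mmol/L) and salicylic acid (10 mmol/L) with compound solutions (0.4–2.0 mg/mL), incubated 30 min at 37 °C. Absorbance read at 510 nm. % OH scavenging = [A0−(A1−A2)]/A0×100, with A2 a sample blank using ethanol in place of salicylic acid.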

[2] = molecular target: T1, α-Glucosidase (Saccharomyces cerevisiae, UniProt P53341); assay: biochemical; type: biochemical; details: for α-glucosidase inhibitory activity (in words): in vitro; for IC50: mean ± SD (n = 3), read-out: α-Glucosidase inhibitory activity IC50 Value
T1 construct: purchased Sigma Aldrich G0660-750UN
How it was run: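 Absorbance at 405 nm of released p-nitrophenol gave % inhibition, corrected for blank and sample-blank wells, and IC50 values, all in triplicate. Reactions combined yeast enzyme, PNPG and test compound in pH 6.8 phosphate buffer (100 mM) at 37 °C for 20 min following a 10-min preincubation, ended with Na2CO3.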

[3] = system: AGEs formation; assay: In vitro inhibitory activity of AGEs formation (bovine serum albumin/glucose); type: biochemical; details: mean ± SD (n = 3)
How it was run: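 Bovine serum albumin (10 mg/mL) with 0.2 M glucose in 50 mM PBS, pH 7.4, plus 0.02% sodium azide, was mixed with compound solutions (0.5–1000 μg/mL in DMSO) and held 14 d at 37 °C. AGE fluorescence was read at ex 350/em 420 nm in triplicate. Inhibition was corrected with glucose-free blanks, and IC50 calculated.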

[4] = system: STZ-diabetic mice; assay: Acute hypoglycemic assay in STZ-diabetic mice; type: in vivo; details: for Blood glucose concentration / % Variation of glycemia: STZ-diabetics mice; for highest anti-hyperglycemic effect: STZ-diabetic mice
Description: Type II diabetes mellitus was induced in mice by a single intraperitoneal injection of freshly prepared STZ (Sigma Aldrich) dissolved in 0.1M citrate buffer, pH 4.5, in a volume of 110 mg/kg of bw. After 7 days of STZ administration, blood glucose levels of each mouse were determined. Mice with blood glucose levels higher than 11 mM were considered diabetic and were included in the study.
STZ-induced diabetic mice and normal mice were placed in single cages with wire-net floors and deprived of food for 12 h before experimentation but allowed free access to tap water throughout. The compounds (at the doses of 10, 30, and 100 mg/kg of bw) were suspended in 0.05% Tween-80 in saline solution. Glibenclamide (10 mg/kg of bw) was suspended in the same vehicle. The target compounds were freshly prepared immediately before experimentation and administered by the intragastrical route at the doses of 10 ml/kg of bw. Control mice received only the vehicle (0.05% Tween-80 in saline solution) by the same route. Blood glucose levels were measured at 0, 1.5, 3, 5, 7, and 9 h after drugs administration.

T1 sequence (P53341 whole entry): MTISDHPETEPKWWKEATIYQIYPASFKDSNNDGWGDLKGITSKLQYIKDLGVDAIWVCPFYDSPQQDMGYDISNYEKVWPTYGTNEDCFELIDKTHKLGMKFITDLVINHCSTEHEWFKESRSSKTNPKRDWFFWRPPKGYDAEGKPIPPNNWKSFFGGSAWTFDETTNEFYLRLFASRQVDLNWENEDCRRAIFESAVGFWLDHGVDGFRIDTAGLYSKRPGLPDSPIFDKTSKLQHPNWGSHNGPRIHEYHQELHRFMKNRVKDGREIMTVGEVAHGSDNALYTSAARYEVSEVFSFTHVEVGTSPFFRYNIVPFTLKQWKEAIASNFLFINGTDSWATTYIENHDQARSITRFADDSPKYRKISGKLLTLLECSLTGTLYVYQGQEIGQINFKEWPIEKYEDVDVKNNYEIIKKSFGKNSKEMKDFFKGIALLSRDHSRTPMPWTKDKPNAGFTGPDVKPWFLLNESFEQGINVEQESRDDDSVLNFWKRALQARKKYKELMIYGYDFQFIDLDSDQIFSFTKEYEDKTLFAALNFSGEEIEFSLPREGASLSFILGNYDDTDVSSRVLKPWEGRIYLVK

| SMILES | IC50 [1] [µM] | α-glucosidase inhibitory activity (in words) [2] | IC50 [2] [µM] | IC50 [3] [µM] | Blood glucose concentration ([4]; 10 mg/kg of bw per os, 0h) [mM] | % Variation of glycemia ([4]; 10 mg/kg of bw per os, 1.5h) | Blood glucose concentration ([4]; 10 mg/kg of bw per os, 1.5h) [mM] | % Variation of glycemia ([4]; 10 mg/kg of bw per os, 3h) | Blood glucose concentration ([4]; 10 mg/kg of bw per os, 3h) [mM] | % Variation of glycemia ([4]; 10 mg/kg of bw per os, 5h) | Blood glucose concentration ([4]; 10 mg/kg of bw per os, 5h) [mM] | % Variation of glycemia ([4]; 10 mg/kg of bw per os, 7h) | Blood glucose concentration ([4]; 10 mg/kg of bw per os, 7h) [mM] | % Variation of glycemia ([4]; 10 mg/kg of bw per os, 9h) | Blood glucose concentration ([4]; 10 mg/kg of bw per os, 9h) [mM] | Blood glucose concentration ([4]; 30 mg/kg of bw per os, 0h) [mM] | % Variation of glycemia ([4]; 30 mg/kg of bw per os, 1.5h) | Blood glucose concentration ([4]; 30 mg/kg of bw per os, 1.5h) [mM] | % Variation of glycemia ([4]; 30 mg/kg of bw per os, 3h) | Blood glucose concentration ([4]; 30 mg/kg of bw per os, 3h) [mM] | other results |
| --- | --- | --- | --- | --- | --- | --- | --- | --- | --- | --- | --- | --- | --- | --- | --- | --- | --- | --- | --- | --- | --- |
| Cc1ccc(-c2cc3c(O)cc(O)cc3oc2=O)cc1 [Compound 25, 5,7-Dihydroxy-3-(4-methylphenyl)-coumarin] | > 1000 | moderate to excellent inhibitory activity | 11.5 ± 0.37 | 45.8 ± 1.27 | 19.7 ± 6.1 | (−20.30) % | 15.7 ± 6.6 | (−24.37) % | 14.9 ± 6.5 | (−50.76) % | 9.7 ± 3.4 | (−64.97) % | 6.9 ± 3.9 | (−56.85) % | 8.5 ± 2.2 | 24.8 ± 4.9 | (−12.50) % | 21.7 ± 3.9 | (−36.23) % | 15.8 ± 4.5 | % Variation of glycemia ([4]; 30 mg/kg of bw per os, 5h): (−64.11) %; Blood glucose concentration ([4]; 30 mg/kg of bw per os, 5h): 8.9 ± 6.3 mM; % Variation of glycemia ([4]; 30 mg/kg of bw per os, 7h): (−63.71) %; Blood glucose concentration ([4]; 30 mg/kg of bw per os, 7h): 9.0 ± 4.8 mM; % Variation of glycemia ([4]; 30 mg/kg of bw per os, 9h): (−64.11) %; Blood glucose concentration ([4]; 30 mg/kg of bw per os, 9h): 8.9 ± 3.8 mM; Blood glucose concentration ([4]; 100 mg/kg of bw per os, 0h): 23.0 ± 4.8 mM; % Variation of glycemia ([4]; 100 mg/kg of bw per os, 1.5h): (−20.44) %; Blood glucose concentration ([4]; 100 mg/kg of bw per os, 1.5h): 18.3 ± 3.5 mM; % Variation of glycemia ([4]; 100 mg/kg of bw per os, 3h): (−25.36) %; Blood glucose concentration ([4]; 100 mg/kg of bw per os, 3h): 17.2 ± 2.9 mM; % Variation of glycemia ([4]; 100 mg/kg of bw per os, 5h): (−56.95) %; Blood glucose concentration ([4]; 100 mg/kg of bw per os, 5h): 9.9 ± 2.7 mM; % Variation of glycemia ([4]; 100 mg/kg of bw per os, 7h): (−64.78) %; Blood glucose concentration ([4]; 100 mg/kg of bw per os, 7h): 8.1 ± 1.6 mM; % Variation of glycemia ([4]; 100 mg/kg of bw per os, 9h): (−60.43) %; Blood glucose concentration ([4]; 100 mg/kg of bw per os, 9h): 9.1 ± 2.3 mM |
| COc1ccc(-c2cc3c(O)cc(O)cc3oc2=O)cc1 [Compound 35, 5,7-Dihydroxy-3-(4-methoxyphenyl)-coumarin] | 270 ± 41.6 | moderate to excellent inhibitory activity | 10.8 ± 0.63 | 5.21 ± 0.07 | 20.5 ± 7.1 | (−36.10) % | 13.1 ± 6.4 | (−47.81) % | 10.7 ± 5.7 | (−72.68) % | 5.6 ± 3.1 | (−73.66) % | 5.4 ± 3.4 | (−72.20) % | 5.7 ± 3.1 | 21.6 ± 4.4 | (−44.44) % | 12.0 ± 3.7 | (−51.39) % | 10.5 ± 5.1 | hypoglycemic effect ([4]; STZ-diabetic animals, 30 mg/kg of bw, started from 3 h and persisted throughout the experiment): > 50%; highest anti-hyperglycemic effect ([4]; 10 mg/kg, at 7 h): ~73.66%; highest anti-hyperglycemic effect ([4]; 30 mg/kg, at 9 h): ~74.54%; % Variation of glycemia ([4]; 30 mg/kg of bw per os, 5h): (−70.83) %; Blood glucose concentration ([4]; 30 mg/kg of bw per os, 5h): 6.3 ± 4.3 mM; % Variation of glycemia ([4]; 30 mg/kg of bw per os, 7h): (−73.61) %; Blood glucose concentration ([4]; 30 mg/kg of bw per os, 7h): 5.7 ± 6.7 mM; % Variation of glycemia ([4]; 30 mg/kg of bw per os, 9h): (−74.54) %; Blood glucose concentration ([4]; 30 mg/kg of bw per os, 9h): 5.5 ± 5.2 mM; Blood glucose concentration ([4]; 100 mg/kg of bw per os, 0h): 20.3 ± 4.4 mM; % Variation of glycemia ([4]; 100 mg/kg of bw per os, 1.5h): (−25.62) %; Blood glucose concentration ([4]; 100 mg/kg of bw per os, 1.5h): 15.1 ± 5.0 mM; % Variation of glycemia ([4]; 100 mg/kg of bw per os, 3h): (−48.28) %; Blood glucose concentration ([4]; 100 mg/kg of bw per os, 3h): 10.5 ± 4.9 mM; % Variation of glycemia ([4]; 100 mg/kg of bw per os, 5h): (−64.53) %; Blood glucose concentration ([4]; 100 mg/kg of bw per os, 5h): 7.2 ± 2.6 mM; % Variation of glycemia ([4]; 100 mg/kg of bw per os, 7h): (−64.53) %; Blood glucose concentration ([4]; 100 mg/kg of bw per os, 7h): 7.2 ± 3.9 mM; % Variation of glycemia ([4]; 100 mg/kg of bw per os, 9h): (−68.47) %; Blood glucose concentration ([4]; 100 mg/kg of bw per os, 9h): 6.4 ± 2.0 mM |
